This note sets out measurements from ChEMBL document CHEMBL3507680, “University of Dundee, Gates Library screen for HepG2 cell viability”.

Structures are written as SMILES.

The nature of the data set: Human HepG2 cell viability assay in 384 well format. The settings on record: HepG2 cells, read-out: Inhibition. In kind it is toxicity, cell-based. Also noted: dose 125 nL, time 70.5 hour; cytotoxicity at 70.5 h: concentration not given beside the values.
As to `O=C(NCc1ccccc1Cl)c1[nH]nc2c1CS(=O)(=O)CC2`, the cytotoxicity at 70.5 h was -5.21%.

With `CCn1ncc(Nc2[nH]cnc3nncc2-3)c1C`, the cytotoxicity at 70.5 h was -3.49%.

As to `Cc1nc2[nH]cnc(NCCN3CCOCC3)c-2n1`, the cytotoxicity at 70.5 h is -1.72%.

Consider `COc1ccc(OC)c(C(C)Nc2ncnc3c2NC(=O)CN3)c1` (centres undefined), for which the cytotoxicity at 70.5 h is -18.2%.

Consider `Cc1noc(C2CCN(C(=O)C3CCCO3)CC2)n1` (centres undefined), for which the cytotoxicity at 70.5 h is -9.25%.

`CCC(C)c1noc(C2CCN(C(=O)Cn3nc(C)cc3C)CC2)n1` (centres undefined): the cytotoxicity at 70.5 h is -5.55%.

For the compound `CCC(C)c1noc(C2CCN(C(=O)c3ccccn3)CC2)n1` (centres undefined), the cytotoxicity at 70.5 h is -3.62%.

For the compound `CC(C)Cc1noc(C2CCCN(C(=O)CCc3cnn(C)c3)C2)n1` (centres undefined), the cytotoxicity at 70.5 h is -8.4%.

With `CNc1ncc2c(n1)CN(CCc1ccc(F)cc1)C2=O`, the cytotoxicity at 70.5 h was -10.4%.

Take `CNc1ncc2c(n1)CN(C1CC(C)(C)NC(C)(C)C1)C2=O`: the cytotoxicity at 70.5 h was -12.6%.

Regarding `CC(c1ccc2c(c1)OCO2)N1Cc2nc(N(C)C)ncc2C1=O` (centres undefined), the cytotoxicity at 70.5 h is -0.989%.

As for `CCn1cc(N2Cc3nc(N(C)C)ncc3C2=O)cn1`, the cytotoxicity at 70.5 h was -4.06%.

In the case of `Cc1noc(C2CCN(C(=O)c3cccs3)CC2)n1`, the cytotoxicity at 70.5 h was -9.06%.

As to `Cc1cc(C)n(CC(=O)N2CCC(c3nc(C(C)C)no3)CC2)n1`, the cytotoxicity at 70.5 h is -7.07%.

For the compound `CC(C)Cc1noc(C2CCCCN2C(=O)CCc2cnn(C)c2)n1` (centres undefined), the cytotoxicity at 70.5 h is -7.69%.

In the case of `Cc1nn(C)c(C)c1CN(C)CC1(O)CCCN(C)C1` (centres undefined), the cytotoxicity at 70.5 h is -19.1%.

Take `Cc1cc(C)n(CCC(=O)N2CCCC(c3nc(C(C)C)no3)C2)n1` (centres undefined): the cytotoxicity at 70.5 h was -4.86%.

With `CCc1noc(C2CCCCN2C(=O)c2ccc(C)o2)n1` (centres undefined), the cytotoxicity at 70.5 h was 14%.

`COc1ccc(N2Cc3nc(N)ncc3C2=O)cc1`: the cytotoxicity at 70.5 h is 9.83%.

In the case of `CCc1noc(C2CCCCN2C(=O)c2cc(C)n(C)n2)n1` (centres undefined), the cytotoxicity at 70.5 h was determined as 16.6%.

Turning to `Cc1cc(C(=O)N2CCCC(c3nc(C)no3)C2)on1` (centres undefined), the cytotoxicity at 70.5 h was -10.6%.

On to `Cc1nn(C)c2cn(C(C)C(=O)NCc3ccncc3)nc12` (centres undefined), for which the cytotoxicity at 70.5 h was -2.93%.

Turning to `Cc1cc(C)n(CCCNc2ncnc3c2NC(=O)CN3)n1`, the cytotoxicity at 70.5 h is -8.3%.

For `CCN1CCCC(O)(CN(C)Cc2ccc(C)o2)C1` (centres undefined), the cytotoxicity at 70.5 h is -10.6%.

`CCn1nc(C)c2c1cnn2CC(=O)NC(C)c1cccc(OC)c1` (centres undefined): the cytotoxicity at 70.5 h is -15.4%.

As to `CCn1nc(C)c2c1cnn2CC(=O)N1CCN(C)CC1`, the cytotoxicity at 70.5 h is -1.92%.

For `CCc1cc(OC)c(OC)cc1C(=O)Nc1cccnc1`, the cytotoxicity at 70.5 h came out at 13%.

For the compound `Cc1cccc2c1ccn2CCC(=O)O`, the cytotoxicity at 70.5 h came to 3.02%.

Take `Cc1ccc(CNc2cc3[nH]c(O)nc3cc2C)cc1`: the cytotoxicity at 70.5 h is -19.5%.

Turning to `CCc1noc(C2CCCCN2C(=O)c2cccnc2)n1` (centres undefined), the cytotoxicity at 70.5 h was -6.76%.

Turning to `Cc1nn(C(C)C)c2cnn(CC(=O)N3CCN(C)CC3)c12`, the cytotoxicity at 70.5 h is -8.52%.

On to `Cc1nn(C(C)C)c2cnn(CC(=O)N3CCSCC3)c12`, for which the cytotoxicity at 70.5 h was -1.45%.

With `CCn1nccc1CN(C)C(=O)Cn1cc2c(n1)c(C)nn2CC`, the cytotoxicity at 70.5 h is -1.76%.

As for `Cc1nc2[nH]cnc(Nc3cc(C)n(C)n3)c-2n1`, the cytotoxicity at 70.5 h is -1.58%.

`CCN1CCCC(O)(CNCc2ccccn2)C1` (centres undefined): the cytotoxicity at 70.5 h is -8.08%.

Consider `CCN1CCCC(O)(CNCc2ccncc2)C1` (centres undefined), for which the cytotoxicity at 70.5 h worked out at 14.1%.

`CN1CCN(c2nsc(-c3cccnc3)c2C#N)CC1`: the cytotoxicity at 70.5 h was -4.14%.

Consider `CC(C)n1cc(N2Cc3nc(N4CCOCC4)ncc3C2=O)cn1`, for which the cytotoxicity at 70.5 h stood at 15.4%.

As for `Cn1nc(C(=O)N2CCSCC2)cc1NC(=O)c1ccccc1`, the cytotoxicity at 70.5 h was -1.31%.

Turning to `CCn1nc(C)c(CNC(=O)c2nnc3ccc(Cl)cc3n2)c1C`, the cytotoxicity at 70.5 h amounted to 0.121%.

Turning to `O=C(NCC1CC1)c1nnc2ccc(Cl)cc2n1`, the cytotoxicity at 70.5 h is -13.3%.

Regarding `O=C1c2cnc(N3CCOCC3)nc2CN1C1CCS(=O)(=O)C1` (centres undefined), the cytotoxicity at 70.5 h came out at 5.93%.

Consider `CC1CCN(c2ncc3c(n2)CN(c2ccc(F)cc2)C3=O)CC1`, for which the cytotoxicity at 70.5 h is -2.02%.

In the case of `O=C1c2cnc(N3CCCC3)nc2CN1C1CCS(=O)(=O)C1` (centres undefined), the cytotoxicity at 70.5 h was -2.78%.

As for `CC(C)CN1Cc2nc(N3CCCC3)ncc2C1=O`, the cytotoxicity at 70.5 h came out at 19.8%.

For the compound `CN1CCN(C(=O)c2cc(NC(=O)c3ccccc3)n(C)n2)CC1`, the cytotoxicity at 70.5 h was -12.7%.

For `CCn1nc(C)c(NC(=O)c2cc(NC(=O)C(C)C)n(C)n2)c1C`, the cytotoxicity at 70.5 h was -5.54%.

Regarding `CC(C)C(=O)Nc1cc(C(=O)NC2CC(C)(C)NC(C)(C)C2)nn1C`, the cytotoxicity at 70.5 h is 14.5%.

As for `CCn1nccc1CN(C)c1nc(N)nc2c1nc(C)n2C`, the cytotoxicity at 70.5 h was -3.81%.

For the compound `Cc1nn(C)c2cn(C(C)C(=O)NCc3ccc(F)cc3)nc12` (centres undefined), the cytotoxicity at 70.5 h was -3.15%.

As for `Cn1nc(C(=O)N2CCSCC2)cc1NC(=O)c1ccco1`, the cytotoxicity at 70.5 h was -5.7%.

In the case of `Cc1ccc2c(cnn2CCC(=O)NCc2csc(C)n2)c1`, the cytotoxicity at 70.5 h was -14.7%.

In the case of `CC(=O)N[C@@H]1C[C@H](c2ccc(OCCO)cc2)OC2(CCOCC2)C1`, the cytotoxicity at 70.5 h was 7.41%.

As for `Cc1cc(O)nc(C2CN(CCC(F)(F)F)CCO2)n1` (centres undefined), the cytotoxicity at 70.5 h is -7.38%.

Regarding `Cc1cccnc1C(=O)N1CCCC(Cc2cncc3ccccc23)C1` (centres undefined), the cytotoxicity at 70.5 h was -3.08%.

Regarding `Cn1cncc1CN1CCCC1c1cncc(Oc2ccc(F)cc2)n1` (centres undefined), the cytotoxicity at 70.5 h is -10.5%.

As to `Cc1noc(C)c1-c1ccnc(C2CCN(C3CCOCC3)CC2)c1`, the cytotoxicity at 70.5 h amounted to 0.77%.

For the compound `C[C@]1(O)CCN(Cc2ncccc2F)C[C@@H]1Oc1ccccc1`, the cytotoxicity at 70.5 h was -6.62%.

On to `C[C@]1(O)CN(Cc2ncccc2F)CC[C@@H]1Oc1ccccc1`, for which the cytotoxicity at 70.5 h is -7.87%.

For the compound `CNc1cc(C2CN(Cc3csc(C)n3)CCO2)nc(C)n1` (centres undefined), the cytotoxicity at 70.5 h came to 9.88%.

For the compound `CC1(C(=O)N2CCOCC2)CN(C2CCCCC2)CCO1` (centres undefined), the cytotoxicity at 70.5 h was 0.715%.

Regarding `CCCn1nccc1-c1cc(C2CCN(C(C)=O)CC2)ccn1`, the cytotoxicity at 70.5 h was -8.34%.

In the case of `Cc1nccc(C2CCCCN2Cc2ccc(F)cc2)n1` (centres undefined), the cytotoxicity at 70.5 h was found to be 10.1%.

`Cc1c[nH]nc1C1CCCN(C(=O)Cn2cccn2)C1` (centres undefined): the cytotoxicity at 70.5 h is -5.23%.

On to `Cc1noc(C)c1-c1ccnc(C2CCNCC2)c1`, for which the cytotoxicity at 70.5 h is -2.34%.

Turning to `c1ccc(O[C@H]2C[C@@H]3CN(Cc4cnccn4)C[C@@H]3C2)cc1`, the cytotoxicity at 70.5 h is -0.72%.

As for `Cc1noc(C)c1-c1cccc(C2CCNCC2)n1`, the cytotoxicity at 70.5 h is 7.5%.

As to `Cc1cnc(C2(C)CCN(Cc3csc(C)n3)CC2)s1`, the cytotoxicity at 70.5 h was -4.14%.

`Cc1cccc(N2CCOC(C(=O)O)C2)c1` (centres undefined): the cytotoxicity at 70.5 h was -6.1%.

On to `O=C(CC1CCCC1)N1CCC(c2cc3ncccc3c(O)n2)CC1`, for which the cytotoxicity at 70.5 h is -9.11%.

Turning to `Cc1nnc(Nc2cccc(C3CCCN(Cc4ncc[nH]4)C3)n2)s1` (centres undefined), the cytotoxicity at 70.5 h was 14%.

As for `CN(C)c1cc(C2CCCN(S(=O)(=O)c3cn(C)cn3)C2)ccn1` (centres undefined), the cytotoxicity at 70.5 h is -4.64%.

As for `NC(=O)CN1CCCC1c1cncc(Oc2ccc(Cl)cc2)n1` (centres undefined), the cytotoxicity at 70.5 h is -4.42%.

For the compound `Cc1ccc(CN(CCCN2CCOCC2)Cc2cnc(C)n2C)o1`, the cytotoxicity at 70.5 h worked out at 12.4%.
